{"source": "ChEMBL document CHEMBL1201862", "about": "“PubChem BioAssay data set” (2004)", "key": {"[1]": {"assay": "viability loss in Vero cells – cytotoxicity control for Vif-APOBEC3G degradation inhibitor project, dose response (AID 1117358)", "assay_type": "functional", "conditions": "Vero"}, "Bcl-2-related protein A1 [2]": {"target": "T1, Bcl-2-related protein A1 (Mus musculus, UniProt Q07440)", "T1 sequence (Q07440 whole entry)": "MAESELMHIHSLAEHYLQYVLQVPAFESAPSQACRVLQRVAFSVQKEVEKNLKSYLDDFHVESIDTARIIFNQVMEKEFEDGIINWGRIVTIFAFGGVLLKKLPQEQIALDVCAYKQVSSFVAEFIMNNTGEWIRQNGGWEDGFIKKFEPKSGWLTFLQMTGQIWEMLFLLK", "assay": "Bfl-1 binding inhibitors, SAR follow-up, biochemical, fluorescence polarization (AID 1070)"}, "Bcl-2-related protein A1 [3]": {"target": "T1, Bcl-2-related protein A1", "assay": "small-molecule antagonists of Bfl-1/BH3 interaction – biochemical, TR-FRET, mouse Bfl-1, confirmation (AID 621);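 also: TR-FRET binding of GST-Bfl-1 to FITC-labelled Bid peptide via terbium antibody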"}, "[4]": {"assay": "HIV-1 AD8 envelope cell-cell fusion blockers – cherry-pick, dose response (AID 652062);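 also: potency is for inhibitors of fusion seen as a drop in luminescence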", "assay_type": "functional, cell-based"}, "[5]": {"assay": "blockers of HIV-1 ZM109 envelope-driven cell-cell fusion – HeLa effector, CEM target cells, luciferase, cherry-pick, dose response (AID 652058)", "assay_type": "functional, cell-based"}, "[6]": {"assay": "blockers of HIV-1 envelope-mediated cell-cell fusion – cherry-pick, dose response (AID 652057)", "assay_type": "functional, cell-based"}, "[7]": {"assay": "off-target signal loss in HeLa-CEM21 co-culture – HeLa F-luc CTL cells, cherry-picked, counter-screen for HIV-1 Env fusion inhibitor project, dose response (AID 652040);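 also: potency for signal decrease marking cytotoxic or nonspecific inhibition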", "assay_type": "functional, cell-based"}, "[8]": {"target": "Glyceraldehyde-3-phosphate dehydrogenase (Homo sapiens, UniProt P04406)", "sequence (P04406 whole entry)": "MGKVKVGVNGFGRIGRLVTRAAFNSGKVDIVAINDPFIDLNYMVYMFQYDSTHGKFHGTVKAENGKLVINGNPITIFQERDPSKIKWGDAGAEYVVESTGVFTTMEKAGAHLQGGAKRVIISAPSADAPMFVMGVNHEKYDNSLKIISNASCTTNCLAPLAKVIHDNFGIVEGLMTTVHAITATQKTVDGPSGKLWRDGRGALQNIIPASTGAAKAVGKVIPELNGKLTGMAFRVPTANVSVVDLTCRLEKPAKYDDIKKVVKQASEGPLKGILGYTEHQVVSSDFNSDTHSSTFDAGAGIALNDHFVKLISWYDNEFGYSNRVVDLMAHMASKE"}, "H9c2": {"tested_on": "H9c2", "assay": "cells", "assay_type": "functional, cell-based", "conditions": "Rattus norvegicus, H9c2, Myocardium"}, "fMet-Leu-Phe receptor": {"target": "T2, fMet-Leu-Phe receptor (Homo sapiens, UniProt P21462)", "T2 sequence (P21462 whole entry)": "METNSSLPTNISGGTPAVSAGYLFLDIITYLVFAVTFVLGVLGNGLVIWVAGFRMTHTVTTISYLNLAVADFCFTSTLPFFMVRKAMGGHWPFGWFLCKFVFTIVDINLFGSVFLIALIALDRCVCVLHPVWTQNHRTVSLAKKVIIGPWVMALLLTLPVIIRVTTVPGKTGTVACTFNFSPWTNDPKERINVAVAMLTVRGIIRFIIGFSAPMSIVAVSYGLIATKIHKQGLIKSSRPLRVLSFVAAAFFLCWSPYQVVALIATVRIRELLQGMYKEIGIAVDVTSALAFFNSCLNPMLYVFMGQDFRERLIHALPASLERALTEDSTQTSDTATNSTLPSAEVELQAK", "assay": "formyl peptide receptor binders – dose response (AID 519)", "assay_type": "functional"}, "[9]": {"assay": "inhibition of ADAM10 peptide cleavage – biochemical, FRET peptide substrate, recombinant human ADAM10, selectivity assay for ADAM17 exosite inhibitor project, dose response (AID 743259);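 also: ADAM10 enzyme cleaving a FRET peptide substrate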"}, "[10]": {"target": "Disintegrin and metalloproteinase domain-containing protein 17 (Homo sapiens, UniProt P78536)", "sequence (P78536 whole entry, the tested form may be a part)": "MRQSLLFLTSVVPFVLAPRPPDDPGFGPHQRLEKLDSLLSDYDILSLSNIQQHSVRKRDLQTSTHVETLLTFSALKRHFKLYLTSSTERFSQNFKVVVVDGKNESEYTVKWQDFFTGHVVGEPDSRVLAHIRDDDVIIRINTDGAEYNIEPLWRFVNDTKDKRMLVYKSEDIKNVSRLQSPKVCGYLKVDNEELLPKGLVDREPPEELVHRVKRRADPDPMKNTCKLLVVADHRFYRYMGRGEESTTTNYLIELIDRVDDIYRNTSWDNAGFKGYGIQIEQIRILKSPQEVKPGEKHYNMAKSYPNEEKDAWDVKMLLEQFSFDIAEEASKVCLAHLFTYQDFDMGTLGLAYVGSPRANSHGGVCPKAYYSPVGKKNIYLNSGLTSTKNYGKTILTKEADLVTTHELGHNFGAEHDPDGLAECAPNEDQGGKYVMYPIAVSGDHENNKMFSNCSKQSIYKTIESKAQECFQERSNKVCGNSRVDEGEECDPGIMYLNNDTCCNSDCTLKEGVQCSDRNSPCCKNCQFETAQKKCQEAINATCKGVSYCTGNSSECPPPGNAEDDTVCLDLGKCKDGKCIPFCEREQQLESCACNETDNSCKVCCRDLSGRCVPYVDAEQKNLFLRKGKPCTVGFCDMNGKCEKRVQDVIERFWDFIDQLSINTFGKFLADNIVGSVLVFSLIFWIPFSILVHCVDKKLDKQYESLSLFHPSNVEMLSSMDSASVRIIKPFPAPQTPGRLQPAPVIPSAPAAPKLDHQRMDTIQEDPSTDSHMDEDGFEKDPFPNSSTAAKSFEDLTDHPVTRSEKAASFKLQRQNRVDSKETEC", "assay": "exosite inhibitors of ADAM17, dose response, biochemical (AID 743260)"}, "[11]": {"target": "T3, Trace amine-associated receptor 1 (Homo sapiens, UniProt Q96RJ0)", "T3 sequence (Q96RJ0 whole entry)": "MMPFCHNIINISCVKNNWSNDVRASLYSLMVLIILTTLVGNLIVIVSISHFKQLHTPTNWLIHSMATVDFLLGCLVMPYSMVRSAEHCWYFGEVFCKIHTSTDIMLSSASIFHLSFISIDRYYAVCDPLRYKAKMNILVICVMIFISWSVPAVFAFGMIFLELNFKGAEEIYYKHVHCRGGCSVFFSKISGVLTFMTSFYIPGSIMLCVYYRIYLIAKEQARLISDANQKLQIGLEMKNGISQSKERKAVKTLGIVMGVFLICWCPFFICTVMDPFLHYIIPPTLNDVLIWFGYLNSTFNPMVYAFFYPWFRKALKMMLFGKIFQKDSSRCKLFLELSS", "assay": "Fluorescence-based cell-based high throughput dose response assay to identify agonists of the human trace amine associated receptor 1 (TAAR1).", "assay_type": "functional"}, "[12]": {"target": "T3, Trace amine-associated receptor 1", "assay": "Counterscreen for agonists of the human trace amine associated receptor 1 (hTAAR1): Fluorescence-based cell-based high throughput dose response assay to identify hTAAR1 agonist that also desensitize TAAR1 receptor response.", "assay_type": "functional"}, "cells [13]": {"assay": "cells", "assay_type": "functional, cell-based"}, "cells [14]": {"assay": "cells", "assay_type": "functional, cell-based", "remark": "listed apart in the source"}, "[15]": {"assay": "HEK-293T viability loss after treatment – luminescence, T-cell screen hits, cytotoxicity control for TCR NF-kB inhibitor project, dose response (AID 489026);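 also: cells exposed to compound about 14 hours before the viability readout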", "assay_type": "functional, cell-based"}, "[16]": {"assay": "A549 cell cytotoxicity, dose response, cytotoxicity control, plate reader, cherry-pick, antagonist series (AID 743412)", "assay_type": "functional, cell-based"}, "[17]": {"assay": "blockade of melanocortin 4 receptor signaling – cell-based, plate reader, cherry pick, counter-screen for LGR2 antagonist project, dose response (AID 743444);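 also: transfected HEK 293 cells stimulated with alpha-MSH peptide; potency of inhibitors of the alpha-MSH evoked signal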", "assay_type": "functional"}, "[18]": {"assay": "toxicity toward HepG2 liver cells – cell-based, plate reader, cherry-pick, antagonist series, cytotoxicity control, dose response (AID 743416)", "assay_type": "functional"}, "[19]": {"assay": "IGROV1 cell killing – plate reader, dry powder samples, PAX8 inhibitor project, dose response (AID 743043)", "assay_type": "functional, cell-based", "conditions": "IGROV-1"}, "[20]": {"assay": "OVCAR-3 cell viability loss – plate reader, dry powder samples, PAX8 inhibitor project, dose response (AID 743044)", "assay_type": "functional, cell-based"}, "Paired box protein Pax-8": {"target": "Paired box protein Pax-8 (Homo sapiens, UniProt Q06710)", "sequence (Q06710 whole entry)": "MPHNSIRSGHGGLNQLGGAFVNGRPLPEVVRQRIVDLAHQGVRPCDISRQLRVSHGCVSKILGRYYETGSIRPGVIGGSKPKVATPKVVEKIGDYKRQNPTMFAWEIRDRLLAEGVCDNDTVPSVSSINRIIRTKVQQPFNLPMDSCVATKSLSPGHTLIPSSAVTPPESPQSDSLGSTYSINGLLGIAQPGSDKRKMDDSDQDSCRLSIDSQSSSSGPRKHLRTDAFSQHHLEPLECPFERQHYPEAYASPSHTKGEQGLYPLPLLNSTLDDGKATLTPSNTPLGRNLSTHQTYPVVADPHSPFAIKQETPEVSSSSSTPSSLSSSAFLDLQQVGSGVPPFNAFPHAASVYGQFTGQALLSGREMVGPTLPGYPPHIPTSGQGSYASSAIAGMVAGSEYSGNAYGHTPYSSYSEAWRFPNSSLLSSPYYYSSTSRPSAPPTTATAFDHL", "assay": "PAX8 transcriptional activity inhibition in RMG-I – RMG-I cells, luciferase, cherry-pick, dose response (AID 687027);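 also: luciferase reporter driven by Pax8 target thyroperoxidase promoter measured by SteadyGlo luminescence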", "assay_type": "functional, cell-based"}}, "note": "Activity calls are given as the source filed them.", "data": [{"smiles": "O=c1c2ccccc2c(-c2ccccc2)nn1-c1cc(Cl)ccc1[N+](=O)[O-]", "values": [{"measurement": "CC50", "setting": "[1]", "value": "> 40 µM (active)"}]}, {"smiles": "Clc1ccc(-n2nnc(-c3cccnc3)n2)cn1", "values": [{"measurement": "IC50", "setting": "Bcl-2-related protein A1 [2]", "value": "> 100 µM (not active)"}, {"measurement": "IC50", "setting": "Bcl-2-related protein A1 [3]", "value": "> 100 µM (not active)"}]}, {"smiles": "COCCN(C(=O)COC(=O)C12CC3CC(CC(Cl)(C3)C1)C2)c1c(N)n(Cc2ccccc2)c(=O)[nH]c1=O", "values": [{"measurement": "AC50", "setting": "[4]", "value": "1.44 µM (active)"}, {"measurement": "AC50", "setting": "[5]", "value": "10.2 µM (active)"}, {"measurement": "AC50", "setting": "[6]", "value": "4.61 µM (active)"}, {"measurement": "AC50", "setting": "[7]", "value": "10.7 µM (active)"}]}, {"smiles": "O=C1C2CC=CCC2C(=O)N1c1nc(-c2ccco2)n[nH]1", "note": "(configuration not stated)", "values": [{"measurement": "IC50", "setting": "[8]", "value": "> 100 µM (not active)"}]}, {"smiles": "COc1ccc2nc(O)c(-c3nnn(-c4ccc(F)cc4)n3)cc2c1", "values": [{"measurement": "IC50", "setting": "Bcl-2-related protein A1 [2]", "value": "> 100 µM (not active)"}, {"measurement": "IC50", "setting": "Bcl-2-related protein A1 [3]", "value": "> 100 µM (not active)"}, {"measurement": "IC50", "setting": "H9c2", "value": "37.1 µM (inactive)"}]}, {"smiles": "CC1Oc2ccccc2N(Cc2ccccc2Cl)C1=O", "note": "(configuration not stated)", "values": [{"measurement": "Ki", "setting": "fMet-Leu-Phe receptor", "value": "> 66.7 µM (inactive)"}]}, {"smiles": "COc1cc(SC)ccc1C(=O)NCCOc1ccc(C)c(C)c1", "values": [{"measurement": "IC50", "setting": "[9]", "value": "27.5 µM (inactive)"}, {"measurement": "IC50", "setting": "[10]", "value": "> 69.5 µM (inactive)"}]}, {"smiles": "O=C(Nc1ccccc1)Nc1ccncc1", "values": [{"measurement": "EC50", "setting": "[11]", "value": "1.02 µM (active)"}, {"measurement": "IC50", "setting": "[12]", "value": "7.05 µM (active)"}, {"measurement": "IC50", "setting": "cells [13]", "value": "> 29.9 µM (inactive)"}, {"measurement": "EC50", "setting": "cells [14]", "value": "> 29.9 µM (inactive)"}]}, {"smiles": "O=C(C[n+]1ccccc1)Nc1nc2ccccc2s1", "values": [{"measurement": "IC50", "setting": "[9]", "value": "> 69.5 µM (inactive)"}, {"measurement": "IC50", "setting": "[10]", "value": "> 69.5 µM (inactive)"}]}, {"smiles": "COc1ccc(-n2nnnc2-c2ccccc2)cc1", "values": [{"measurement": "CC50", "setting": "[1]", "value": "> 40 µM (active)"}, {"measurement": "IC50", "setting": "[15]", "value": "> 80 µM (inactive)"}]}, {"smiles": "CCCCN(Cc1ccccc1)S(=O)(=O)c1cc2c(cc1Br)CC(C)N2C(C)=O", "note": "(configuration not stated)", "values": [{"measurement": "IC50", "setting": "[9]", "value": "12.6 µM (inactive)"}, {"measurement": "AC50", "setting": "[16]", "value": "28.8 µM (active)"}, {"measurement": "AC50", "setting": "[17]", "value": "58.1 µM (active)"}, {"measurement": "IC50", "setting": "[10]", "value": "> 69.5 µM (inactive)"}, {"measurement": "AC50", "setting": "[18]", "value": "46 µM (active)"}]}, {"smiles": "COc1cccc(S(=O)(=O)Nc2ccc3c(c2)[C@@H]2C[C@@H](CC(=O)NCc4ccc(Cl)cc4)O[C@@H](CO)[C@@H]2O3)c1", "values": [{"measurement": "AC50", "setting": "[19]", "value": "60.3 µM (active)"}, {"measurement": "AC50", "setting": "[20]", "value": "25.9 µM (active)"}, {"measurement": "AC50", "setting": "Paired box protein Pax-8", "value": "3.36 µM (active)"}]}, {"smiles": "NC(Cc1ccccc1)c1csc(Nc2ccc(C(=O)NCCO)cc2)n1", "note": "(configuration not stated)", "values": [{"measurement": "EC50", "setting": "[11]", "value": "4.32 µM (active)"}, {"measurement": "IC50", "setting": "[12]", "value": "> 29.9 µM (inactive)"}, {"measurement": "IC50", "setting": "cells [13]", "value": "> 29.9 µM (inactive)"}, {"measurement": "EC50", "setting": "cells [14]", "value": "> 29.9 µM (inactive)"}]}, {"smiles": "CCCCCCCCN1C(=O)[C@@H](CC(=O)NCCc2ccccc2OC)C[C@@]2(C(=O)OC)C1=C[C@H](C1CCCC1)O[C@@H]2C", "values": [{"measurement": "EC50", "setting": "[11]", "value": "3.22 µM (active)"}, {"measurement": "IC50", "setting": "[12]", "value": "8.54 µM (active)"}, {"measurement": "IC50", "setting": "cells [13]", "value": "> 29.9 µM (inactive)"}, {"measurement": "EC50", "setting": "cells [14]", "value": "> 29.9 µM (inactive)"}]}, {"smiles": "COc1ccc2c(=O)c(N3C(=O)c4ccccc4C3=O)c(C)oc2c1", "values": [{"measurement": "Ki", "setting": "fMet-Leu-Phe receptor", "value": "> 66.7 µM (inactive)"}]}, {"smiles": "CC(C)CCN(N=O)[C@@H](Cc1ccccc1)CN(N=O)[C@@H](Cc1ccccc1)CN(C)N=O", "values": [{"measurement": "AC50", "setting": "[4]", "value": "5.64 µM (active)"}, {"measurement": "AC50", "setting": "[5]", "value": "6.6 µM (active)"}, {"measurement": "AC50", "setting": "[6]", "value": "5.26 µM (active)"}, {"measurement": "AC50", "setting": "[7]", "value": "34.7 µM (active)"}]}, {"smiles": "Cc1cc(N/N=C/c2ccccc2O)nc(N2CCOCC2)n1", "values": [{"measurement": "EC50", "setting": "[11]", "value": "> 29.9 µM (inactive)"}, {"measurement": "IC50", "setting": "[12]", "value": "2.52 µM (active)"}, {"measurement": "IC50", "setting": "cells [13]", "value": "> 29.9 µM (inactive)"}, {"measurement": "EC50", "setting": "cells [14]", "value": "> 29.9 µM (inactive)"}]}]}
